# In patent US7083798B1, “Method of immunomodulatory treatment of insulin dependent diabetes mellitus using mycobacterial cell wall compositions” (Centenary Institute of Cancer Medicine and Cell Biology, priority 1996, dated 2006):
# Tested on: mice
# Test: Maximum dose tolerated by mice
# Protocol: GMDP (10, 5.0, 2.5 and 1.0 μg), ManLAM (50, 25, 12.5 and 6.25 μg), and MAPG (1.0, 0.5, 0.25 and 0.125 mg) were each suspended in saline and injected intravenously into eight week old female NOD mice. […] Groups of 5 mice were tested and the incidence of diabetes compared to 17 saline treated and 14 BCG treated control mice.
structure (smiles),measurement,value
"CC(=O)N[C@H]1[C@H](O[C@H]2[C@H](O[C@H](C)C(=O)N[C@@H](C)C(=O)N[C@H](CCC(=O)O)C(N)=O)[C@@H](NC(C)=O)C(O)O[C@@H]2CO)O[C@H](CO)[C@@H](O)[C@@H]1O (stereo partly drawn) [GMDP, N-acetylglucosaminyl-N-acetylmuramyl-L-alanyl-D-isoglutamine]",maximum dose tolerated by mice,10 µL·g
